Reference: PubChem BioAssay AID248 (DTP/NCI, 2004)
Values joined by “and” are separate entries in the source; they are usually repeats but may differ in a detail not shown here. Equal values may be shown once. Toxic doses and inconclusive results are not listed. No stated cut-off is given here; in the data, active means T/C of 150% or more; inactive means T/C below 125%.

System: L1210 leukemia ip in BDF1 mice, survival T/C
Assay: NCI In Vivo Anticancer Drug Screen. Data for tumor model L1210 Leukemia (intraperitoneal) in B6D2F1 (BDF1) mice
Conditions: higher = longer survival
Outline: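 Tumor was transplanted into mice, which were then dosed with test compound or vehicle alone. Survival was recorded for each group, and the treated figure was expressed relative to the control figure.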

[1] = endpoint: mean survival time, dose: 20.0 mg/kg/injection, schedule: Q01DX001 (ip), vehicle: saline

Measured: T/C

COc1cccc2c1C(=O)c1c(O)c3c(c(O)c1C2=O)C[C@@](O)(C(=O)CO)C[C@@H]3OC1CC(N)C(O)C(C)O1 (some centres undefined)
inactive: endpoint: mean survival time, dose: 0.09 mg/kg/injection, schedule: Q01DX009 (ip), vehicle: saline 106 % of control | endpoint: mean survival time, dose: 0.18 mg/kg/injection, schedule: Q01DX009 (ip), vehicle: saline 107 % of control and 113 % of control | endpoint: mean survival time, dose: 0.2 mg/kg/injection, schedule: Q01DX009 (ip), vehicle: water 112 % of control | endpoint: mean survival time, dose: 0.28 mg/kg/injection, schedule: Q04DX002 (ip), vehicle: saline 110 % of control and 120 % of control | endpoint: mean survival time, dose: 0.3 mg/kg/injection, schedule: Q01DX015 (ip), vehicle: clinical formulation 116 % of control | endpoint: mean survival time, dose: 0.44 mg/kg/injection, schedule: Q01DX015 (ip), vehicle: clinical formulation 119 % of control | endpoint: mean survival time, dose: 0.5 mg/kg/injection, schedule: Q01DX003 (ip), vehicle: water 115 % of control | endpoint: mean survival time, dose: 0.5 mg/kg/injection, schedule: Q## X Z (ip), vehicle: water 113 % of control | endpoint: mean survival time, dose: 0.55 mg/kg/injection, schedule: Q04DX002 (ip), vehicle: saline 103 % of control and 108 % of control | endpoint: mean survival time, dose: 1.0 mg/kg/injection, schedule: Q01DX009 (sc), vehicle: clinical formulation 107 % of control | endpoint: mean survival time, dose: 1.0 mg/kg/injection, schedule: Q03HX024 (ip), vehicle: water 111 % of control | endpoint: mean survival time, dose: 1.0 mg/kg/injection, schedule: Q04DX004 (ip), vehicle: clinical formulation 117 % of control | endpoint: mean survival time, dose: 1.5 mg/kg/injection, schedule: Q01DX009 (sc), vehicle: clinical formulation 108 % of control | endpoint: mean survival time, dose: 2.0 mg/kg/injection, schedule: Q03HX024 (ip), vehicle: water 93 % of control | endpoint: mean survival time, dose: 2.2 mg/kg/injection, schedule: Q01DX009 (sc), vehicle: clinical formulation 113 % of control | endpoint: mean survival time, dose: 3.0 mg/kg/injection, schedule: Q01DX009 (ip), vehicle: saline 107 % of control | endpoint: mean survival time, dose: 3.3 mg/kg/injection, schedule: Q01DX009 (sc), vehicle: clinical formulation 117 % of control | endpoint: mean survival time, dose: 4.0 mg/kg/injection, schedule: Q01DX008 (ip), vehicle: saline 98 % of control | endpoint: mean survival time, dose: 4.9 mg/kg/injection, schedule: Q01DX009 (sc), vehicle: clinical formulation 110 % of control | endpoint: mean survival time, dose: 5.0 mg/kg/injection, schedule: Q01DX009 (ip), vehicle: saline 93 % of control | [1] 108 % of control | endpoint: mean survival time, dose: 100.0 micrograms/kg/injection, schedule: Q03HX032 (ip), vehicle: clinical formulation 117 % of control | endpoint: mean survival time, dose: 150.0 micrograms/kg/injection, schedule: Q03HX032 (ip), vehicle: clinical formulation 120 % of control | endpoint: median survival time, dose: 0.12 mg/kg/injection, schedule: Q03HX008 (ip), vehicle: water 120 % of control | endpoint: median survival time, dose: 0.13 mg/kg/injection, schedule: Q03HX008 (ip), vehicle: water 119 % of control | endpoint: median survival time, dose: 0.23 mg/kg/injection, schedule: Q04DX003 (ip), vehicle: water 113 % of control | endpoint: median survival time, dose: 0.25 mg/kg/injection, schedule: Q01DX009 (ip), vehicle: water 115 % of control | endpoint: median survival time, dose: 0.28 mg/kg/injection, schedule: Q03HX008 (ip), vehicle: water 111 % of control | endpoint: median survival time, dose: 0.47 mg/kg/injection, schedule: Q03HX008 (ip), vehicle: water 111 % of control | endpoint: median survival time, dose: 0.5 mg/kg/injection, schedule: Q01DX001 (ip), vehicle: water 113 % of control and 116 % of control | endpoint: median survival time, dose: 0.5 mg/kg/injection, schedule: Q01DX009 (ip), vehicle: water 115 % of control and 119 % of control | endpoint: median survival time, dose: 0.5 mg/kg/injection, schedule: Q03HX024 (ip), vehicle: water 114 % of control | endpoint: median survival time, dose: 0.65 mg/kg/injection, schedule: Q01DX005 (sc), vehicle: water 110 % of control | endpoint: median survival time, dose: 0.65 mg/kg/injection, schedule: Q01DX009 (ip), vehicle: water 104 % of control | endpoint: median survival time, dose: 0.65 mg/kg/injection, schedule: Q03HX008 (sc), vehicle: water 110 % of control | endpoint: median survival time, dose: 0.75 mg/kg/injection, schedule: Q04DX003 (ip), vehicle: water 109 % of control | endpoint: median survival time, dose: 0.78 mg/kg/injection, schedule: Q03HX008 (ip), vehicle: water 105 % of control | endpoint: median survival time, dose: 1.0 mg/kg/injection, schedule: Q01DX009 (ip), vehicle: water 115 % of control | endpoint: median survival time, dose: 1.0 mg/kg/injection, schedule: Q03HX024 (ip), vehicle: water 93 % of control and 110 % of control | endpoint: median survival time, dose: 1.0 mg/kg/injection, schedule: Q04DX003 (ip), vehicle: water 119 % of control | endpoint: median survival time, dose: 1.0 mg/kg/injection, schedule: Q## X001 (ip), vehicle: saline 113 % of control | endpoint: median survival time, dose: 1.08 mg/kg/injection, schedule: Q01DX005 (sc), vehicle: water 105 % of control | endpoint: median survival time, dose: 1.08 mg/kg/injection, schedule: Q01DX009 (ip), vehicle: water 104 % of control and 113 % of control | endpoint: median survival time, dose: 1.17 mg/kg/injection, schedule: Q04DX003 (ip), vehicle: water 100 % of control | endpoint: median survival time, dose: 1.25 mg/kg/injection, schedule: Q04DX003 (ip), vehicle: water 115 % of control | endpoint: median survival time, dose: 1.5 mg/kg/injection, schedule: Q04DX003 (ip), vehicle: water 102 % of control | endpoint: median survival time, dose: 1.75 mg/kg/injection, schedule: Q04DX003 (ip), vehicle: water 100 % of control | endpoint: median survival time, dose: 1.8 mg/kg/injection, schedule: Q01DX001 (ip), vehicle: water 95 % of control and 113 % of control and 120 % of control | endpoint: median survival time, dose: 1.8 mg/kg/injection, schedule: Q01DX005 (sc), vehicle: water 110 % of control | endpoint: median survival time, dose: 1.8 mg/kg/injection, schedule: Q01DX009 (ip), vehicle: water 109 % of control and 113 % of control | endpoint: median survival time, dose: 1.8 mg/kg/injection, schedule: Q08DX002 (ip), vehicle: water 100 % of control and 118 % of control | endpoint: median survival time, dose: 2.0 mg/kg/injection, schedule: Q01DX009 (ip), vehicle: water 104 % of control | endpoint: median survival time, dose: 2.0 mg/kg/injection, schedule: Q## X001 (ip), vehicle: saline 118 % of control | endpoint: median survival time, dose: 2.6 mg/kg/injection, schedule: Q04DX003 (ip), vehicle: water 116 % of control | endpoint: median survival time, dose: 3.0 mg/kg/injection, schedule: Q01DX009 (ip), vehicle: water 109 % of control | endpoint: median survival time, dose: 3.0 mg/kg/injection, schedule: Q08DX002 (ip), vehicle: water 100 % of control and 118 % of control | endpoint: median survival time, dose: 3.0 mg/kg/injection, schedule: Q12DX002 (ip), vehicle: water 117 % of control | endpoint: median survival time, dose: 3.9 mg/kg/injection, schedule: Q01DX001 (ip), vehicle: water 105 % of control | endpoint: median survival time, dose: 5.0 mg/kg/injection, schedule: Q12DX002 (ip), vehicle: water 119 % of control | endpoint: median survival time, dose: 5.9 mg/kg/injection, schedule: Q04DX003 (ip), vehicle: water 111 % of control | endpoint: median survival time, dose: 6.0 mg/kg/injection, schedule: Q01DX001 (ip), vehicle: water 115 % of control | endpoint: median survival time, dose: 6.0 mg/kg/injection, schedule: Q04DX003 (ip), vehicle: water 103 % of control | endpoint: median survival time, dose: 8.0 mg/kg/injection, schedule: Q04DX003 (ip), vehicle: water 94 % of control and 97 % of control (2×) | endpoint: median survival time, dose: 8.3 mg/kg/injection, schedule: Q04DX003 (ip), vehicle: water 116 % of control | endpoint: median survival time, dose: 8.4 mg/kg/injection, schedule: Q08DX002 (ip), vehicle: water 104 % of control and 118 % of control | endpoint: median survival time, dose: 8.9 mg/kg/injection, schedule: Q04DX003 (ip), vehicle: water 100 % of control | endpoint: median survival time, dose: 10.0 mg/kg/injection, schedule: Q04DX003 (ip), vehicle: water 94 % of control and 100 % of control and 103 % of control | endpoint: median survival time, dose: 10.0 mg/kg/injection, schedule: Q08DX002 (ip), vehicle: water 111 % of control | endpoint: median survival time, dose: 12.0 mg/kg/injection, schedule: Q01DX001 (ip), vehicle: water 120 % of control | endpoint: median survival time, dose: 13.3 mg/kg/injection, schedule: Q01DX001 (ip), vehicle: water 105 % of control | endpoint: median survival time, dose: 14.0 mg/kg/injection, schedule: Q08DX002 (ip), vehicle: water 95 % of control and 104 % of control | endpoint: median survival time, dose: 24.0 mg/kg/injection, schedule: Q01DX001 (ip), vehicle: water 114 % of control

Cc1ccc(S(N)(=O)=O)cc1S(N)(=O)=O
inactive: endpoint: mean survival time, dose: 100.0 mg/kg/injection, schedule: Q01DX001 (ip), vehicle: Klucel (hydroxypropylcellulose) (HPC) 94 % of control | endpoint: mean survival time, dose: 200.0 mg/kg/injection, schedule: Q01DX001 (ip), vehicle: Klucel (hydroxypropylcellulose) (HPC) 92 % of control | endpoint: mean survival time, dose: 400.0 mg/kg/injection, schedule: Q01DX001 (ip), vehicle: Klucel (hydroxypropylcellulose) (HPC) 105 % of control

NC1C2CC3CC(C2)CC1C3 (centres undefined)
inactive: endpoint: mean survival time, dose: 5.0 mg/kg/injection, schedule: Q01DX001 (ip), vehicle: saline 102 % of control | endpoint: mean survival time, dose: 10.0 mg/kg/injection, schedule: Q01DX001 (ip), vehicle: saline 98 % of control | [1] 107 % of control | endpoint: mean survival time, dose: 40.0 mg/kg/injection, schedule: Q01DX001 (ip), vehicle: saline 96 % of control | endpoint: mean survival time, dose: 75.0 mg/kg/injection, schedule: Q01DX001 (ip), vehicle: other 93 % of control | endpoint: mean survival time, dose: 80.0 mg/kg/injection, schedule: Q01DX001 (ip), vehicle: saline 96 % of control

CC1(C)OCC(C2OC(c3ccccc3)OC(CO)C2O)O1 (centres undefined)
inactive: endpoint: mean survival time, dose: 12.5 mg/kg/injection, schedule: Q04DX002 (ip), vehicle: saline with Tween-80 87 % of control | endpoint: mean survival time, dose: 25.0 mg/kg/injection, schedule: Q04DX002 (ip), vehicle: saline with Tween-80 101 % of control | endpoint: mean survival time, dose: 50.0 mg/kg/injection, schedule: Q04DX002 (ip), vehicle: saline with Tween-80 100 % of control
